Inconclusive results and toxic doses are left out.
System: CD2F1 mice, L1210 leukemia ip, survival T/C
Assay: NCI In Vivo Anticancer Drug Screen. Data for tumor model L1210 Leukemia (intraperitoneal) in CD2F1 (CDF1) mice
Details: endpoint: mean survival time, higher = longer survival
Procedure, shortened: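 Mice carrying a transplanted tumor received test compound or vehicle alone. The value is the measurement in the treated group divided by that in the vehicle-treated control group.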

[1] = dose: 100.0 mg/kg/injection, schedule: Q01DX009 (ip), vehicle: saline
[2] = dose: 200.0 mg/kg/injection, schedule: Q01DX009 (ip), vehicle: saline
[3] = dose: 50.0 mg/kg/injection, schedule: Q01DX009 (ip), vehicle: saline with Tween-80

For `N=C(N)SCc1c2ccccc2c(CSC(=N)N)c2ccccc12`, the T/C (dose: 0.06 mg/kg/injection, schedule: Q#B X Z (ip), vehicle: saline) was 109 % of control, the T/C (dose: 0.13 mg/kg/injection, schedule: Q#B X Z (ip), vehicle: saline) was 121 % of control and the T/C (dose: 0.39 mg/kg/injection, schedule: Q01DX Z (ip), vehicle: saline) was 115 % of control. For the same compound, the T/C (dose: 0.78 mg/kg/injection, schedule: Q01DX Z (ip), vehicle: saline) was 121 % of control, the T/C (dose: 1.04 mg/kg/injection, schedule: Q#B X Z (ip), vehicle: saline) was 155 % of control and the T/C (dose: 2.08 mg/kg/injection, schedule: Q#B X Z (ip), vehicle: saline) was 160 % of control. The T/C (dose: 3.13 mg/kg/injection, schedule: Q01DX Z (ip), vehicle: saline) was 151 % of control, the T/C (dose: 6.25 mg/kg/injection, schedule: Q01DX Z (ip), vehicle: saline) was 162 % of control and the T/C (dose: 8.33 mg/kg/injection, schedule: Q#B X Z (ip), vehicle: saline) was 119 % of control. For the same compound, the T/C (dose: 12.5 mg/kg/injection, schedule: Q01DX Z (ip), vehicle: saline) was 156 % of control, the T/C (dose: 16.66 mg/kg/injection, schedule: Q#B X Z (ip), vehicle: saline) was 98 % of control and the T/C (dose: 25.0 mg/kg/injection, schedule: Q01DX Z (ip), vehicle: saline) was 155 % of control. For the same compound, the T/C (dose: 50.0 mg/kg/injection, schedule: Q01DX001 (ip), vehicle: saline) was 158 % of control, the T/C (dose: 50.0 mg/kg/injection, schedule: Q03HX008 (ip), vehicle: saline) was 178 % of control and the T/C (dose: 50.0 mg/kg/injection, schedule: Q03HX016 (ip), vehicle: saline) was 175 % of control. For the same compound, the T/C (dose: 50.0 mg/kg/injection, schedule: Q06HX004 (ip), vehicle: saline) was 151 % of control, the T/C (dose: 50.0 mg/kg/injection, schedule: Q08DX002 (ip), vehicle: saline) was 174 % of control and the T/C (dose: 50.0 mg/kg/injection, schedule: Q12HX002 (ip), vehicle: saline) was 173 % of control. The T/C (dose: 50.0 mg/kg/injection, schedule: Q12HX004 (ip), vehicle: saline) was 189 % of control, the T/C (dose: 80.0 mg/kg/injection, schedule: Q01DX001 (ip), vehicle: saline) was 168 % of control and the T/C (dose: 100.0 mg/kg/injection, schedule: Q01DX001 (ip), vehicle: saline) was 193 % of control. The T/C [1] was 154 % of control, the T/C (dose: 100.0 mg/kg/injection, schedule: Q01DX Z (ip), vehicle: saline) was 124 % of control and the T/C (dose: 100.0 mg/kg/injection, schedule: Q03HX008 (ip), vehicle: saline) was 196 % of control. The T/C (dose: 100.0 mg/kg/injection, schedule: Q03HX016 (ip), vehicle: saline) was 194 % of control, the T/C (dose: 100.0 mg/kg/injection, schedule: Q08DX002 (ip), vehicle: saline) was 220 % of control and the T/C (dose: 100.0 mg/kg/injection, schedule: Q12HX002 (ip), vehicle: saline) was 239 % of control. For the same compound, the T/C (dose: 100.0 mg/kg/injection, schedule: Q12HX004 (ip), vehicle: saline) was 224 % of control, the T/C (dose: 125.0 mg/kg/injection, schedule: Q01DX001 (ip), vehicle: saline) was 113 % of control and the T/C (dose: 200.0 mg/kg/injection, schedule: Q01DX001 (ip), vehicle: saline) was 227 % of control. For the same compound, the T/C [2] was 106 % of control, the T/C (dose: 200.0 mg/kg/injection, schedule: Q01DX010 (oral), vehicle: saline) was 94 % of control and the T/C (dose: 200.0 mg/kg/injection, schedule: Q01DX Z (ip), vehicle: saline) was 88 % of control. The T/C (dose: 200.0 mg/kg/injection, schedule: Q03HX008 (ip), vehicle: saline) was 207 % of control, the T/C (dose: 200.0 mg/kg/injection, schedule: Q03HX016 (ip), vehicle: saline) was 204 % of control and the T/C (dose: 200.0 mg/kg/injection, schedule: Q06HX008 (ip), vehicle: saline) was 179 % of control. For the same compound, the T/C (dose: 200.0 mg/kg/injection, schedule: Q08DX002 (ip), vehicle: saline) was 197 % of control, the T/C (dose: 200.0 mg/kg/injection, schedule: Q12HX002 (ip), vehicle: saline) was 254 % of control and the T/C (dose: 200.0 mg/kg/injection, schedule: Q12HX004 (ip), vehicle: saline) was 158 % of control. The T/C (dose: 320.0 mg/kg/injection, schedule: Q01DX001 (ip), vehicle: saline) was 100 % of control, the T/C (dose: 400.0 mg/kg/injection, schedule: Q01DX010 (oral), vehicle: saline) was 90 % of control and the T/C (dose: 400.0 mg/kg/injection, schedule: Q03HX016 (ip), vehicle: saline) was 111 % of control. The T/C (dose: 400.0 mg/kg/injection, schedule: Q06HX004 (ip), vehicle: saline) was 183 % of control, the T/C (dose: 400.0 mg/kg/injection, schedule: Q06HX008 (ip), vehicle: saline) was 152 % of control and the T/C (dose: 400.0 mg/kg/injection, schedule: Q08DX002 (ip), vehicle: saline) was 152 % of control. The T/C (dose: 400.0 mg/kg/injection, schedule: Q12HX004 (ip), vehicle: saline) was 118 % of control, the T/C (dose: 800.0 mg/kg/injection, schedule: Q01DX010 (oral), vehicle: saline) was 88 % of control and the T/C (dose: 1000.0 mg/kg/injection, schedule: Q01DX001 (ip), vehicle: saline) was 162 % of control.

For `CCCCCCCCCCCCNC(=O)c1cc[n+](Cc2ccc(Cl)c(Cl)c2)cc1`, the T/C (dose: 100.0 mg/kg/injection, schedule: Q04DX003 (ip), vehicle: saline with Tween-80) was 103 % of control, the T/C (dose: 200.0 mg/kg/injection, schedule: Q04DX003 (ip), vehicle: saline with Tween-80) was 96 % of control and the T/C (dose: 400.0 mg/kg/injection, schedule: Q04DX003 (ip), vehicle: saline with Tween-80) was 94 % of control.

With `Cn1c(=O)c2c(ncn2CCNCC(O)c2ccc(O)c(O)c2)n(C)c1=O` (stereo not drawn) the T/C (dose: 12.5 mg/kg/injection, schedule: Q01DX005 (ip), vehicle: water) was 100 % of control, the T/C (dose: 25.0 mg/kg/injection, schedule: Q01DX005 (ip), vehicle: water) was 106 % of control and the T/C (dose: 50.0 mg/kg/injection, schedule: Q01DX005 (ip), vehicle: water) was 97 % of control. For the same compound, the T/C (dose: 100.0 mg/kg/injection, schedule: Q01DX005 (ip), vehicle: water) was 101 % of control and the T/C (dose: 200.0 mg/kg/injection, schedule: Q01DX005 (ip), vehicle: water) was 106 % of control.

In the case of `CCOC(=O)/C=C(\C)Nc1cccc(NC(C)=O)c1`, the T/C (dose: 12.5 mg/kg/injection, schedule: Q01DX009 (ip), vehicle: other) is reported as 97 % of control, the T/C (dose: 25.0 mg/kg/injection, schedule: Q01DX009 (ip), vehicle: other) is reported as 91 % of control and the T/C (dose: 50.0 mg/kg/injection, schedule: Q01DX009 (ip), vehicle: other) is reported as 91 % of control. The T/C (dose: 100.0 mg/kg/injection, schedule: Q01DX009 (ip), vehicle: other) was 100 % of control and the T/C (dose: 200.0 mg/kg/injection, schedule: Q01DX009 (ip), vehicle: other) was 91 % of control.

For `O=C1NC(=O)c2c(O)ccc(O)c21`, the T/C (dose: 100.0 mg/kg/injection, schedule: Q01DX001 (ip), vehicle: Klucel (hydroxypropylcellulose) (HPC)) was 114 % of control, the T/C (dose: 200.0 mg/kg/injection, schedule: Q01DX001 (ip), vehicle: Klucel (hydroxypropylcellulose) (HPC)) was 91 % of control and the T/C (dose: 400.0 mg/kg/injection, schedule: Q01DX001 (ip), vehicle: Klucel (hydroxypropylcellulose) (HPC)) was 95 % of control.

With `COc1ccc(COC(=O)Nc2ccc(Cl)cc2)cc1` the T/C (dose: 50.0 mg/kg/injection, schedule: Q04DX002 (ip), vehicle: saline with Tween-80) was 104 % of control, the T/C (dose: 100.0 mg/kg/injection, schedule: Q04DX002 (ip), vehicle: saline with Tween-80) was 100 % of control and the T/C (dose: 200.0 mg/kg/injection, schedule: Q04DX002 (ip), vehicle: saline with Tween-80) was 92 % of control.

In the case of `CC(=O)Oc1ccc2ccccc2c1`, the T/C (dose: 25.0 mg/kg/injection, schedule: Q01DX009 (ip), vehicle: saline with Tween-80) is reported as 100 % of control, the T/C [3] is reported as 107 % of control and the T/C (dose: 100.0 mg/kg/injection, schedule: Q01DX001 (ip), vehicle: saline with Tween-80) is reported as 107 % of control.

For `O=C(O)CCC(=O)Nc1cccc(Oc2ccc([N+](=O)[O-])cc2[N+](=O)[O-])c1`, the T/C [1] was 94 % of control, the T/C [2] was 94 % of control and the T/C (dose: 400.0 mg/kg/injection, schedule: Q01DX009 (ip), vehicle: saline) was 100 % of control.

`O=C(Nc1ccc2cc(S(=O)(=O)O)ccc2c1)c1ccc(N=Nc2c(S(=O)(=O)O)cc3cc(S(=O)(=O)O)cc(NC(=O)c4ccccc4)c3c2O)cc1` was tested, and the T/C [3] was 96 % of control and the T/C (dose: 100.0 mg/kg/injection, schedule: Q01DX009 (ip), vehicle: saline with Tween-80) was 101 % of control.

With `CC1(C)CC(N2CCCOP2(=O)N(CCCl)CCCl)CC(C)(C)N1` (stereo not drawn) the T/C (dose: 62.5 mg/kg/injection, schedule: Q01DX001 (ip), vehicle: water) was 105 % of control, the T/C (dose: 125.0 mg/kg/injection, schedule: Q01DX001 (ip), vehicle: water) was 100 % of control and the T/C (dose: 250.0 mg/kg/injection, schedule: Q01DX001 (ip), vehicle: water) was 106 % of control.
